The structures appear in SMILES notation.

The target of this experiment is 4-aminobutyrate aminotransferase, mitochondrial (Rattus norvegicus, UniProt P50554). Put plainly: Inhibition of Rattus norvegicus (rat) brain gamma-amino butyrate aminotransferase using gamma-amino butyrate as substrate assessed as decrease in NADPH generation after 30 min by spectrophotometric analysis.
Sequence of 4-aminobutyrate aminotransferase, mitochondrial (P50554 whole entry): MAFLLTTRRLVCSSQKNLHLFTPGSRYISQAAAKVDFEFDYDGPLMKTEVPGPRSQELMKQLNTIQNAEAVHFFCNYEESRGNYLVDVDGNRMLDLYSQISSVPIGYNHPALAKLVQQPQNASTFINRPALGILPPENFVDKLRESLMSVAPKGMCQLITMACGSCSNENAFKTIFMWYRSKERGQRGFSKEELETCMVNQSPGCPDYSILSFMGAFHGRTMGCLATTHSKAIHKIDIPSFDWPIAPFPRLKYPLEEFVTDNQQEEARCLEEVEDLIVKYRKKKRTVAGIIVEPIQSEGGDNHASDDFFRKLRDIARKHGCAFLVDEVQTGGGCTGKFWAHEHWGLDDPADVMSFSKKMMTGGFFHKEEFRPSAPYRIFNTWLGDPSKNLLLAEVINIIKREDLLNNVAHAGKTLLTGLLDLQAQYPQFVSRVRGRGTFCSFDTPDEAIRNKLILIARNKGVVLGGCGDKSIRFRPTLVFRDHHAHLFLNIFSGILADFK

Usually IC50 stands for the midpoint of a concentration-inhibition curve. On to `NCCCC(=O)N/N=C1\CCCc2ccccc21`, for which the IC50 amounted to 280 nM.
With `NCCCC(=O)N/N=C(/C(=O)c1ccccc1)c1ccccc1` the figure was 300 nM; with `NCCCC(=O)N/N=C(\c1ccccc1)c1ccc(Br)cc1`, 560 nM.
Turning to `O=C(O)CCCN=C(/C=C/c1ccccc1)/C=C/c1ccccc1`, the IC50 came out at 9950 nM.
As to `CC12CCC(C1)C(C)(C)/C2=N\CCCC(=O)O` (stereo not drawn), the 50% inhibitory concentration (IC50) turned out to be 10000 nM.
Consider `O=C(O)CCC/N=C1/C(=O)c2ccccc2-c2ccccc21`, for which the half-inhibitory concentration (IC50) is 15500 nM.
`O=C(O)CCC/N=C1/C(=O)c2cccc3cccc1c23`: the IC50 was found to be 16800 nM.
For `CC1CCCC/C1=N\CCCC(=O)O` (stereo not drawn), the IC50 is 20800 nM.
`CC1CCC(C(C)C)/C(=N/CCCC(=O)O)C1` (stereo not drawn): the IC50 came out at 20800 nM.
`C=C(C)C1CC=C(C)/C(=N/CCCC(=O)O)C1` (stereo not drawn): the IC50 came out at 23500 nM.
Regarding `CC1=C/C(=N/CCCC(=O)O)CC(C)(C)C1`, the half-maximal inhibitory concentration (IC50) came to 25900 nM.
Take `CC1=CC(=O)C=C/C1=N\CCCC(=O)O`: the IC50 worked out at 30100 nM.
As for `C/C(=N\CCCC(=O)O)c1ccc2ccccc2c1`, the IC50 came out at 44100 nM.
Consider `Nc1cccc(C(=O)N/N=C2/c3ccccc3C(=O)c3ccc(O)c(O)c32)c1`, for which the IC50 came out at 240 nM.
On to `C/C(=N/NC(=O)c1cccc(N)c1)c1cccc(Cl)c1`, for which the IC50 was 320 nM.
In the case of `Nc1cccc(C(=O)N/N=C(/c2ccccc2)c2ccc(Cl)cc2)c1`, the IC50 turned out to be 370 nM.
For the compound `Nc1cccc(C(=O)N/N=C2/c3ccccc3C(=O)c3ccc(Cl)cc32)c1`, the IC50 worked out at 460 nM.
With `CCc1ccc2c(c1)/C(=N/c1cccc(C(=O)O)c1)c1ccccc1C2=O` the figure was 1210 nM; with `O=C(O)c1cccc(/N=C2\C(=O)c3ccccc3-c3ccccc32)c1`, 2780 nM; with `O=C(O)c1cccc(N=C2c3ccccc3C(=O)c3ccccc32)c1`, 4960 nM.
On to `CC1=C(C)C(=Nc2cccc(C(=O)O)c2)C(C)=C(C)C1=O`, for which the IC50 worked out at 6540 nM.
For `C/C(=N/NC(=O)CCCN)c1ccccc1Br`, the IC50 worked out at 73 nM.
`C/C(=N/NC(=O)CCCN)c1cccc(Cl)c1`: the IC50 turned out to be 91 nM.
On to `Cc1ccc2c(c1)/C(=N\NC(=O)CCCN)c1ccccc1C2=O`, for which the IC50 is 110 nM.
For the compound `NCCCC(=O)N/N=C/c1cccc(I)c1`, the IC50 was found to be 150 nM.
For `NCCCC(=O)N/N=C1\CCc2ccccc2C1`, the IC50 amounted to 130 nM.
For `NCCCC(=O)NN=C1c2ccccc2C(=O)c2ccccc21`, the IC50 worked out at 140 nM.
To `NCCCC(=O)N/N=C/c1ccccc1I` belongs 200 nM.

The values are drawn from ChEMBL document CHEMBL3045067, “-Amino butyric acid analogs as novel potent GABA-AT inhibitors: molecular docking, synthesis, and biological evaluation” (Med Chem Res, 2013).
